Test results as given in patent US7718641B2, “Pyrrolo [3,4-H] isoquinoline compounds and methods for modulating gated ion channels” (Aros Pharma ApS, priority 2005, dated 2010).

Assays:
Format in all cases: cell-based
[1] = test system: rat dorsal root ganglion neurons; experiment: Patch clamp (voltage clamp) of native proton-gated currents in rat dorsal root ganglion neurons in primary culture; conditions: 1 μM, voltage-clamp mode, n=3
Procedure: These endogenous proton-activated inward currents were recorded in the presence and absence of Compound A (1 μM) or Compound H (1 μM) using the whole cell configuration of the patch clamp method (voltage clamp mode).
(§1) Sensory neurons can be isolated and cultured in vitro from different animal species. The most widely used protocols use sensory neurons isolated from neonatal (Eckert, et al. (1997) J Neurosci Methods 77:183-190) and embryonic (Vasko, et al. (1994) J Neurosci 14:4987-4997) rat. […] Electrophysiology is performed similarly as described above in Example 2. […] In the current-clamp mode, change in the trans-membrane potential are recorded. Under acidic conditions (e.g., pH 6.5) the membrane depolarizes, leading to the firing of action potentials, as shown in FIGS. 7A and 7B.

[2] = test system: rat dorsal root ganglion neurons; experiment: Patch clamp (current clamp) of acid-induced action potential generation in rat dorsal root ganglion neurons in primary culture; conditions: 1 μM, current-clamp mode, n=3
Procedure: The acid-evoked action potentials were recorded in the presence and absence of Compound A (1 μM) or Compound H (1 μM) using the whole cell configuration of the patch clamp method (current clamp mode).
as §1

rat ASIC3 = target: T1, rat ASIC3 (Rattus norvegicus, UniProt O35240); experiment: Whole-cell patch clamp of acid-induced peak inward currents in HEK293 transfected with rat ASIC3; conditions: for inhibitory effect on acid-induced peak inward currents, rASIC3: HEK293, voltage clamp, increasing concentrations; for potency as antagonist compared to amiloride, rASIC3: full dose-inhibition curves, HEK293
T1 construct: expressed in transfected cells; host or cells: HEK293
T1 sequence (O35240 1-533): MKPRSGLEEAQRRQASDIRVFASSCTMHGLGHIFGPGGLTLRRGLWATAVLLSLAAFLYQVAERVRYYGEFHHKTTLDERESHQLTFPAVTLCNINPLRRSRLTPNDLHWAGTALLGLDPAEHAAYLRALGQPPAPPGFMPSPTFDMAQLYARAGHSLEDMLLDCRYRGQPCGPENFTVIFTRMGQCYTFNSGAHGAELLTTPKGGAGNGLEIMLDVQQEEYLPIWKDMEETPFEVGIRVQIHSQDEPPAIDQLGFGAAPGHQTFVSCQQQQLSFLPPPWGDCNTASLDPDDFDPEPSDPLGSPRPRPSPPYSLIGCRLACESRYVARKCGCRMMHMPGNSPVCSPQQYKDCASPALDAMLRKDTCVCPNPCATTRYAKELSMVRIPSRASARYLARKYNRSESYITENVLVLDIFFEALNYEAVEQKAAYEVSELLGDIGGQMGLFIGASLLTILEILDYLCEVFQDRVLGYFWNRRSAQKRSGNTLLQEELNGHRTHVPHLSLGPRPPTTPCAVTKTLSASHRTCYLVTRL
Procedure: Another example of an in vitro assessment method consists of using mammalian heterologous expression systems, which are known to the skilled in the art, and include a variety of mammalian cell lines such as COS, HEK, e.g., HEK293 and/or CHO, cells. Cell lines are transfected with gated ion channel(s) and used to perform electrophysiology as follows:
All experiments are performed at room temperature (20-25° C.) in voltage clamp using conventional whole cell patch clamp methods (Neher, E., et al. (1978) Pfluegers Arch 375:219-228).
The amplifier used is the EPC-9 (HEKA-electronics, Lambrect, Germany) run by a Macintosh G3 computer via an ITC-16 interface. Experimental conditions are set with the Pulse-software accompanying the amplifier. Data is low pass filtered and sampled directly to hard-disk at a rate of 3 times the cut-off frequency.
Pipettes are pulled from borosilicate glass using a horizontal electrode puller (Zeitz-Instrumente, Augsburg, Germany). The pipette resistances are 2-3 MOhms in the salt solutions used in these experiments. The pipette electrode is a chloridized silver wire, and the reference is a silver chloride pellet electrode (In Vivo Metric, Healdsburg, USA) fixed to the experimental chamber. The electrodes are zeroed with the open pipette in the bath just prior to sealing.
Coverslips with the cells are transferred to a 15 μl experimental chamber mounted on the stage of an inverted microscope (IMT-2, Olympus) supplied with Nomarski optics. Cells are continuously superfused with extracellular saline at a rate of 2.5 ml/min. After giga-seal formation, the whole cell configuration is attained by suction. The cells are held at a holding voltage of −60 mV and at the start of each experiment the current is continuously measured for 45 s to ensure a stable baseline. Solutions of low pH (<7) are delivered to the chamber through a custom-made gravity-driven flowpipe, the tip of which is placed approximately 50 μm from the cell. Application is triggered when the tubing connected to the flowpipe is compressed by a valve controlled by the Pulse-software. Initially, low pH (in general, pH 6.5) is applied for 5 s every 60 s. The sample interval during application is 5501s. […] Current amplitudes are measured at the peak of the responses, and effect of the compounds is calculated as the amplitude at compound equilibrium divided by the amplitude of the current evoked by the pulse just before the compound was included. […]
HEK293 cells were transfected with rASIC1a or rASIC3 and were used to perform full dose-inhibition curves with Compound A, Compound H and amiloride. Results are expressed as a fraction of the control peak current obtained in the absence of the test substance.

COc1ccc(F)cc1-c1cc2c(c3c1CCN(C)C3)NC(=O)/C2=N/O [Compound A, 5-(5-fluoro-2-methoxyphenyl)-6,7,8,9-tetrahydro-3-(hydroxyimino)-8-methyl-1H-pyrrolo[3,2-h]isoquinoline-2(3H)-one]
effect on pH 6.5-induced inward current in sensory neurons [1]: inhibit the pH 6.5-induced inward current
effect on acid-induced membrane depolarization and action potential firing [2]: inhibit the acid-induced membrane depolarization and reduces the ensuing rate of action potential firing
inhibitory effect on acid-induced peak inward currents, rASIC3 (rat ASIC3): dose-dependently inhibit
potency as antagonist compared to amiloride, rASIC3 (rat ASIC3): more potent antagonists as compared to amiloride

CCN1CCc2c(-c3ccccc3)cc3c(c2C1)NC(=O)/C3=N/O [Compound H, 5-phenyl-6,7,8,9-tetrahydro-3-(hydroxyimino)-8-ethyl-1H-pyrrolo[3,2-h]isoquinoline-2(3H)-one]
effect on pH 6.5-induced inward current in sensory neurons [1]: inhibit the pH 6.5-induced inward current
effect on acid-induced membrane depolarization and action potential firing [2]: inhibit the acid-induced membrane depolarization and reduces the ensuing rate of action potential firing
inhibitory effect on acid-induced peak inward currents, rASIC3 (rat ASIC3): dose-dependently inhibit
potency as antagonist compared to amiloride, rASIC3 (rat ASIC3): more potent antagonists as compared to amiloride
